Test results: patent US6090828A, “5-aryleheteroarylalkyl-1,3,5-trisubstituted-1,2,4-triazole compounds for treatment of circulatory disorders” (priority 1997, dated 2000)
Read-outs that look alike come from different tables or passages of the source.

Key:
[1] = biological target: smooth muscle angiotensin II receptor; assay: Assay A: Angiotensin II Binding Activity; conditions: 50% displacement of specifically bound 125I-AII; rat uterine membranes; pH 7.5; 25° C., 60 min
Protocol: Compounds of the invention were tested for ability to bind to the smooth muscle angiotensin II receptor using a rat uterine membrane preparation. […] Rat uterine membranes were prepared from fresh tissue. All procedures were carried out at 4° C. Uteri were stripped of fat and homogenized in phosphate-buffered saline at pH 7.4 containing 5 mM EDTA. The homogenate was centrifuged at 1500×g for 20 min., and the supernatant was recentrifuged at 100,000×g for 60 min. The pellet was resuspended in buffer consisting of 2 mM EDTA and 50 mM Tris-HCl (pH 7.5) to a final protein concentration of 4 mg/ml. […] The reaction was initiated by the addition of membrane protein and the mixture was incubated at 25° C. for 60 min. The incubation was terminated with ice-cold 50 mM Tris-HCl (pH 7.5) and the mixture was filtered to separate membrane-bound labelled peptide from the free ligand. The incubation tube and filter were washed with ice-cold buffer. Filters were assayed for radioactivity in a Micromedic gamma counter. Nonspecific binding was defined as binding in the presence of 10 μM of unlabelled AII. Specific binding was calculated as total binding minus nonspecific binding. […] Binding data were analyzed by a nonlinear least-squares curve fitting program.

rabbit aortic rings = biological target: T1, rabbit aortic rings (Oryctolagus cuniculus, UniProt P34976); assay: Assay B: In Vitro Vascular Smooth Muscle Response for AII; set-up: species or system rabbit (male New Zealand white); conditions: rabbit aorta rings, two rabbits per antagonist, antagonist 10^-5 M, 5 minutes, AII contraction, Schild
T1 construct: The thoracic aorta was removed, cleaned of adherent fat and connective tissue and then cut into 3-mm ring segments; from tissue; host or cells: rabbit thoracic aorta rings, endothelium removed
T1 sequence (P34976 1-359): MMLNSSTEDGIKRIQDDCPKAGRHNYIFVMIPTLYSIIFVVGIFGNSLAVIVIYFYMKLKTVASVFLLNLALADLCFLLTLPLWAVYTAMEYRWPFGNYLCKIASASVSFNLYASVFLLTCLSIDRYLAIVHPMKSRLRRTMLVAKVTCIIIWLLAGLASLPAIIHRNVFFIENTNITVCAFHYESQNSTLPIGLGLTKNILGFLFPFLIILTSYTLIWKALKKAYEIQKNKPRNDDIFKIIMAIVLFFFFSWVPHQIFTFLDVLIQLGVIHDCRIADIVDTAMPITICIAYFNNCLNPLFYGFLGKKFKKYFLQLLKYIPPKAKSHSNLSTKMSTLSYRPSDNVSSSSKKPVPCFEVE
Protocol: The compounds of the invention were tested for antagonist activity in rabbit aortic rings. Male New Zealand white rabbits (2-2.5 kg) were sacrificed using an overdose of pentobarbital and exsanguinated via the carotid arteries. The thoracic aorta was removed, cleaned of adherent fat and connective tissue and then cut into 3-mm ring segments. The endothelium was removed from the rings by gently sliding a rolled-up piece of filter paper into the vessel lumen. The rings were then mounted in a water-jacketed tissue bath, maintained at 37° C., between moveable and fixed ends of a stainless steel wire with the moveable end attached to an FT03 Grass transducer coupled to a Model 7D Grass Polygraph for recording isometric force responses. […] The preparations were equilibrated for one hour before approximately one gram of passive tension was placed on the rings. Angiotensin II concentration-response curves were then recorded (3×10^-10 to 1×10^-5 M). Each concentration of AII was allowed to elicit its maximal contraction, and then AII was washed out repeatedly for 30 minutes before rechallenging with a higher concentration of AII. Aorta rings were exposed to the test antagonist at 10^-5 M for 5 minutes before challenging with AII. Adjacent segments of the same aorta ring were used for all concentration-response curves in the presence or absence of the test antagonist. […] The pA2 value is the concentration of the antagonist which increases the EC50 value for AII by a factor of two. Each test antagonist was evaluated in aorta rings from two rabbits.

[2] = read-out: pA2 (first of two values) (converted)
[3] = read-out: pA2 (second of two values) (converted)

Row | Compound | IC50 [1] [nM] | Kb (rabbit aortic rings; [2]) [nM] | Kb (rabbit aortic rings; [3]) [nM]
1 | 5-[2-[5-[[1-ethyl-3-(1,1-difluoroethyl)-1H-1,2,4-triazol-5-yl]methyl]-2-pyridinyl]phenyl]-1H-tetrazole [Example 15] | 1700 |  | 
2 | CCCCn1nc(CCc2ccccc2)nc1Cc1ccc(-c2ccccc2-c2nnn[nH]2)nc1 [Example 2, 5-[2-[5-[[1-butyl-3-(2-phenylethyl)-1H-1,2,4-triazol-5-yl]methyl]-2-pyridinyl]phenyl]-1H-tetrazole] | 17 | 17.4 | 10.7
3 | CCCCn1nc(/C=C/c2cccs2)nc1Cc1ccc(-c2ccccc2-c2nnn[nH]2)nc1 [Example 5, 5-[2-[5-[[1-butyl-3-[2-(2-thienyl)ethenyl]-1H-1,2,4-triazol-5-yl]methyl]-2-pyridinyl]phenyl]-1H-tetrazole] | 97 | 6.46 | 4.17
4 | CCCCCn1nc(CCCC)nc1Cc1ccc(-c2ccccc2-c2nnn[nH]2)nc1 [Example 6, 5-[2-[5-[(1-pentyl-3-butyl-1H-1,2,4-triazol-5-yl)methyl]-2-pyridinyl]phenyl]-1H-tetrazole] | 86 | 25.1 | 72.4
5 | CCCCCc1nc(Cc2ccc(-c3ccccc3-c3nnn[nH]3)nc2)n(CCCC)n1 [Example 7, 5-[2-[5-[(1-butyl-3-pentyl-1H-1,2,4-triazol-5-yl)methyl]-2-pyridinyl]phenyl]-1H-tetrazole] | 78 | 9.33 | 21.9
6 | CCCCc1nc(Cc2ccc(-c3ccccc3-c3nnn[nH]3)nc2)n(CC(CC)CC)n1 [Example 8, 5-[2-[5-[[1-(2-ethylbutyl)-3-butyl-1H-1,2,4-triazol-5-yl]methyl]-2-pyridinyl]phenyl]-1H-tetrazole] | 530 |  | 603
7 | CCCCn1nc(C(=O)CCC)nc1Cc1ccc(-c2ccccc2-c2nnn[nH]2)nc1 [Example 11, 5-[2-[5-[[1-butyl-3-(1-oxobutyl)-1H-1,2,4-triazol-5-yl]methyl]-2-pyridinyl]phenyl]-1H-tetrazole] | 64 | 13.5 | 19.5
8 | CCCCn1nc(C(F)CCC)nc1Cc1ccc(-c2ccccc2-c2nnn[nH]2)nc1 (stereo not shown) [Example 12, 5-[2-[5-[[1-butyl-3-(1-fluorobutyl)-1H-1,2,4-triazol-5-yl]methyl]-2-pyridinyl]phenyl]-1H-tetrazole] | 28 |  | 
9 | CCCn1nc(C(F)F)nc1Cc1ccc(-c2ccccc2-c2nnn[nH]2)nc1 [Example 13, 5-[2-[5-[(1-propyl-3-difluoromethyl-1H-1,2,4-triazol-5-yl)methyl]-2-pyridinyl]phenyl]-1H-tetrazole] | 380 | 617 | 282
10 | CCCCn1nc(C(F)F)nc1Cc1ccc(-c2ccccc2-c2nnn[nH]2)nc1 [Example 14, 5-[2-[5-[(1-butyl-3-difluoromethyl-1H-1,2,4-triazol-5-yl)methyl]-2-pyridinyl]phenyl]-1H-tetrazole] | 420 | 38 | 178
11 | CCCn1nc(C(C)(F)F)nc1Cc1ccc(-c2ccccc2-c2nnn[nH]2)nc1 [Example 16, 5-[2-[5-[[1-propyl-3-(1,1-difluoroethyl)-1H-1,2,4-triazol-5-yl]methyl]-2-pyridinyl]phenyl]-1H-tetrazole] | 410 | 126 | 66.1
12 | CCCCn1nc(C(C)(F)F)nc1Cc1ccc(-c2ccccc2-c2nnn[nH]2)nc1 [Example 17, 5-[2-[5-[[1-butyl-3-(1,1-difluoroethyl)-1H-1,2,4-triazol-5-yl]methyl]-2-pyridinyl]phenyl]-1H-tetrazole] | 160 | 26.9 | 18.2
13 | CCCn1nc(C(F)(F)CC)nc1Cc1ccc(-c2ccccc2-c2nnn[nH]2)nc1 [Example 18, 5-[2-[5-[[1-propyl-3-(1,1-difluoropropyl)-1H-1,2,4-triazol-5-yl]methyl]-2-pyridinyl]phenyl]-1H-tetrazole] | 370 | 83.2 | 77.6
14 | CCCCn1nc(C(F)(F)CC)nc1Cc1ccc(-c2ccccc2-c2nnn[nH]2)nc1 [Example 19, 5-[2-[5-[[1-butyl-3-(1,1-difluoropropyl)-1H-1,2,4-triazol-5-yl]methyl]-2-pyridinyl]phenyl]-1H-tetrazole] | 420 | 20.4 | 26.3
15 | CCCCn1nc(C(=O)NC)nc1Cc1ccc(-c2ccccc2-c2nnn[nH]2)nc1 [Example 23, 5-[2-[5-[[1-butyl-3-(N-methylamido)-1H-1,2,4-triazol-5-yl]methyl]-2-pyridinyl]phenyl]-1H-tetrazole] | 70 | 70.8 | 91.2
16 | CCCCn1nc(C(=O)NC(C)(C)C)nc1Cc1ccc(-c2ccccc2-c2nnn[nH]2)nc1 [Example 24, 5-[2-[5-[[1-butyl-3-(N-tertbutylamido)-1H-1,2,4-triazol-5-yl]methyl]-2-pyridinyl]phenyl]-1H-tetrazole] | 90 | 32.4 | 120
17 | CCCn1nc(C(OC)OC)nc1Cc1ccc(-c2ccccc2-c2nnn[nH]2)nc1 [Example 25, 5-[2-[5-[[1-propyl-3-dimethoxymethyl-1H-1,2,4-triazol-5-yl]methyl]-2-pyridinyl]phenyl]-1H-tetrazole] | 180 | 51.3 | 95.5
18 | CCCCn1nc(C(OCCC)OCCC)nc1Cc1ccc(-c2ccccc2-c2nnn[nH]2)nc1 [Example 28, 5-[2-[5-[[1-butyl-3-dipropoxymethyl-1H-1,2,4-triazol-5-yl]methyl]-2-pyridinyl]phenyl]-1H-tetrazole] | 26 | 38.9 | 14.1
19 | CCCCn1nc(C(OC(C)C)OC(C)C)nc1Cc1ccc(-c2ccccc2-c2nnn[nH]2)nc1 [Example 29, 5-[2-[5-[[1-butyl-3-diisopropoxymethyl-1H-1,2,4-triazol-5-yl]methyl]-2-pyridinyl]phenyl]-1H-tetrazole] | 88 | 28.8 | 33.9
20 | CCCCn1nc(C=O)nc1Cc1ccc(-c2ccccc2-c2nnn[nH]2)nc1 [Example 30, 5-[2-[5-[[1-butyl-3-formyl-1H-1,2,4-triazol-5-yl]methyl]-2-pyridinyl]phenyl]-1H-tetrazole] | 310 | 214 | 
21 | CCCCn1nc(C(C)(OC)OC)nc1Cc1ccc(-c2ccccc2-c2nnn[nH]2)nc1 [Example 33, 5-[2-[5-[[1-butyl-3-(1,1-dimethoxyethyl)-1H-1,2,4-triazol-5-yl]methyl]-2-pyridinyl]phenyl]-1H-tetrazole] | 59 |  | 
22 | CCCCn1nc(C(C)=O)nc1Cc1ccc(-c2ccccc2-c2nnn[nH]2)nc1 [Example 34, 5-[2-[5-[[1-butyl-3-(1-oxoethyl)-1H-1,2,4-triazol-5-yl]methyl]-2-pyridinyl]phenyl]-1H-tetrazole] | 390 |  | 
23 | CCCCc1nc(Cc2ccc(-c3ccccc3-c3nnn[nH]3)nc2)n(CC(C)(C)C)n1 [Example 35, 5-[2-[5-[(1-neopentyl-3-butyl-1H-1,2,4-triazol-5-yl)methyl]-2-pyridinyl]phenyl]-1H-tetrazole] | 1100 | 166 | 
